# Test results reported in publication PMC7539012, “Hyperphosphorylated tau aggregation and cytotoxicity modulators screen identified prescription drugs linked to Alzheimer's disease and cognitive functions” (Scientific Reports, 2020).
# Where a name gives a salt, the structure may show the parent alone.
# System: T1, 1N4R p-tau
# T1 construct: made in house; host or cells: E. coli (PIMAX system)
# Assay: p-tau aggregation modulator screen of 1280-compound library (ThS fluorescence net change over 16 h);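 also: 30 µM compound with 6 µM p-tau over 16 h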
# Assay type: biochemical
# Settings: not given
row,Structure (SMILES),ThS net change
1,COc1cc(NC(C)CCCN)c2ncccc2c1 (centres unmarked) [Primaquine diphosphate],250
2,CCC(=O)O[C@H]1CC[C@H]2[C@@H]3CCC4=CC(=O)CC[C@]4(C)[C@H]3CC[C@]12C [Testosterone propionate],452
3,CCN(CC)Cc1cc(Nc2ccnc3cc(Cl)ccc23)ccc1O.Cl.Cl.O.O [Amodiaquin dihydrochloride dihydrate],309
4,Cc1ccc(Cl)c(Nc2ccccc2C(=O)[O-])c1Cl.O.[Na+],436
5,CCC(=O)O[C@@](Cc1ccccc1)(c1ccccc1)[C@@H](C)CN(C)C [Levopropoxyphene napsylate],434
6,Nc1ccc(C(=O)O)c(O)c1 [4-aminosalicylic acid],428
7,COc1cccc(N(C)C(=S)Oc2ccc3c(c2)CCCC3)n1 [Liranaftate],435
8,CC(=O)NC1CCSC1=O (racemic) [N-Acetyl-DL-homocysteine Thiolactone],421
9,CCC(C)(C)c1ccc(CC(C)CN2C[C@@H](C)O[C@@H](C)C2)cc1 (some centres unmarked) [Amorolfine hydrochloride],413

# Same assay, conditions: 1280-compound library screen; ThS fluorescence net change over 16 h
row,Structure (SMILES),ThS net change
1,Nc1cc(C(Cl)=C(Cl)Cl)c(S(N)(=O)=O)cc1S(N)(=O)=O [Clorsulon],393
2,O=C(N/N=C/c1ccc([N+](=O)[O-])o1)c1ccc(O)cc1 [Nifuroxazide],402
3,NC(=O)c1cc[n+](CC2=C(C(=O)O)N3C(=O)[C@@H](NC(=O)[C@@H](c4ccccc4)S(=O)(=O)[O-])[C@H]3SC2)cc1 [Cefsulodin sodium salt],388
4,C#Cc1cccc(Nc2ncnc3cc(OCCOC)c(OCCOC)cc23)c1 [Erlotinib],387
5,COc1ccc(OC)c(C(O)C(C)N)c1 (centres unmarked) [Methoxamine hydrochloride],405
6,CCn1cc(C(=O)O)c(=O)c2cnc(N3CCCC3)nc21 [Piromidic acid],394
7,Cc1ncc([N+](=O)[O-])n1CC(O)CCl (centres unmarked) [Ornidazole],383
8,Cl.N=C(N)NC(=N)N1CCOCC1 [Moroxidine hydrochloride],379
9,CCCCOc1ccc(OCCCN2CCOCC2)cc1 [Pramoxine hydrochloride],381
10,CCCCNc1ccc(C(=O)OCCOCCOCCOCCOCCOCCOCCOCCOCCOC)cc1 [Benzonatate],398
11,[H]/N=C(\N/C(=N/[H])Nc1ccc(Cl)cc1)NC(C)C [Proguanil hydrochloride],389
12,CS(=O)(=O)c1ccc(C2=C(c3ccccc3)C(=O)OC2)cc1 [Rofecoxib],396
13,Nc1cc(-c2ccncc2)c[nH]c1=O [Amrinone],410
14,CCOC(=O)[C@H](CCc1ccccc1)N[C@H]1CCc2ccccc2N(CC(=O)O)C1=O [Benazepril HCl],382

# Same assay, conditions: 1280-compound library screen; […]
row,Structure (SMILES),ThS net change
1,CCCCCN(C)CCC(O)(P(=O)([O-])O)P(=O)(O)O.[Na+] [Ibandronate sodium],394
2,CN1CCN(C(=O)OC2c3nccnc3C(=O)N2c2ccc(Cl)cn2)CC1 (centres unmarked) [Zopiclone],407
3,C[N+]1(C)CCOC(O)(c2ccc(-c3ccc(C4(O)C[N+](C)(C)CCO4)cc3)cc2)C1.[Br-].[Br-] (centres unmarked) [Hemicholinium bromide],379
4,C#C[C@]1(O)CC[C@H]2[C@@H]3[C@H](C)CC4=C(CCC(=O)C4)[C@H]3CC[C@@]21C [Tibolone],381
5,CNC(C)(C)Cc1ccccc1.CNC(C)(C)Cc1ccccc1.O=S(=O)(O)O [Mephentermine hemisulfate],380
6,CC(=O)OC1CN2CCC1CC2 (centres unmarked) [Aceclidine Hydrochloride],409
7,CC(=O)OCC(=O)[C@H]1CC[C@H]2[C@@H]3CC[C@H]4C[C@H](O)CC[C@]4(C)[C@H]3C(=O)C[C@]12C [Alfadolone acetate],396
8,CC(=O)[N-]S(=O)(=O)c1ccc(N)cc1.O.[Na+] [Sulfacetamide sodic hydrate],393

# Same assay, conditions: library screen, ThS fluorescence net change over 16 h with p-tau
row,Structure (SMILES),ThS net change
1,COc1ccc(C(=O)CC(=O)c2ccc(C(C)(C)C)cc2)cc1 [Avobenzone],250
2,CN1CCN(CC(=O)N2c3ccccc3C(=O)Nc3cccnc32)CC1 [Pirenzepine dihydrochloride],322
3,Cc1ccccc1C(OCCN(C)C)c1ccccc1 (centres unmarked) [Orphenadrine hydrochloride],295
4,Cl.Clc1ccc(Cn2c(CN3CCCC3)nc3ccccc32)cc1 [Clemizole hydrochloride],325
5,CS(=O)(=O)OCCCCOS(C)(=O)=O [Busulfan],324
6,CCCCC(CC)CNC(=N)NC(=N)NCCCCCCNC(=N)NC(=N)NCC(CC)CCCC (centres unmarked) [Alexidine dihydrochloride],327
7,COc1ccc(CCN2CCC(Nc3nc4ccccc4n3Cc3ccc(F)cc3)CC2)cc1 [Astemizole],265
8,CN1CCN(CCCN2c3ccccc3Sc3ccc(S(=O)(=O)N(C)C)cc32)CC1.CS(=O)(=O)O.CS(=O)(=O)O [Thioproperazine dimesylate],314
9,Cc1scc2c1N(C(=O)CN1CCN(C)CC1)c1ccccc1NC2=O [Telenzepine dihydrochloride],326

# Same assay, conditions: p-tau aggregation modulator screen of 1280-compound library; ThS fluorescence net change
row,Structure (SMILES),ThS net change
1,Cc1cc(CC(=O)[O-])n(C)c1C(=O)c1ccc(Cl)cc1.[Na+] [Zomepirac sodium salt],356
2,NNCCc1ccccc1 [Phenelzine sulfate],369
3,CC(=O)c1ccc(S(=O)(=O)NC(=O)NC2CCCCC2)cc1 [Acetohexamide],360
4,COC(=O)Nc1nc2ccc(C(=O)c3ccccc3)cc2[nH]1 [Mebendazole],340
5,"C[C@H]1C[C@@H]2[C@H]([C@@H](O)C[C@@]3(C)[C@H]2CC[C@]3(O)C(=O)CO)[C@@]2(C)C=CC(=O)C=C12 [Methylprednisolone, 6-alpha]",340
6,C#C[C@]1(O)CC[C@H]2[C@@H]3CCC4=CC(=O)CC[C@@H]4[C@H]3CC[C@@]21C [Norethindrone],356
7,CN1CCN2c3ccccc3Cc3ccccc3C2C1.Cl (centres unmarked) [Mianserine hydrochloride],366
8,O=c1[nH]c(=O)n([C@H]2C[C@H](O)[C@@H](CO)O2)cc1I [Idoxuridine],359
9,CC(C)(C(=O)c1cccnc1)c1cccnc1 [Metyrapone],353
10,CC(=O)[C@H]1CC[C@H]2[C@@H]3C=CC4=CC(=O)CC[C@@]4(C)[C@@H]3CC[C@]12C [Dydrogesterone],371
11,CCCCCCCN(CC)CCCC(O)c1ccc(NS(C)(=O)=O)cc1.CCCCCCCN(CC)CCCC(O)c1ccc(NS(C)(=O)=O)cc1.O=C(O)/C=C/C(=O)O (centres unmarked) [Ibutilide fumarate],330
12,CCN(CC)CCNC(=O)c1cc(S(C)(=O)=O)ccc1OC [Tiapride hydrochloride],349
13,CC(C)NCC(O)COc1cccc2[nH]ccc12 (centres unmarked) [Pindolol],331
14,CN(C)CCC=C1c2ccccc2COc2ccccc21 [Doxepin hydrochloride],341
15,Nc1[nH]c(=O)ncc1F [Flucytosine],334

# Same assay, conditions: p-tau aggregation modulator screen of 1280-compound library; […]
row,Structure (SMILES),ThS net change
1,CC(=O)N(CC(O)CN(C(C)=O)c1c(I)c(C(=O)NCC(O)CO)c(I)c(C(=O)NCC(O)CO)c1I)c1c(I)c(C(=O)NCC(O)CO)c(I)c(C(=O)NCC(O)CO)c1I (centres unmarked) [Iodixanol],338

# Same assay, conditions: p-tau aggregation modulator screen of the compound library, ThS fluorescence net change
row,Structure (SMILES),ThS net change
1,O=C1NCCN1CCN1CCC(c2cn(-c3ccc(F)cc3)c3ccc(Cl)cc23)CC1 [Sertindole],434
2,CC(=O)CC(c1ccc([N+](=O)[O-])cc1)c1c(O)c2ccccc2oc1=O (centres unmarked) [Acenocoumarol],568
3,CN(C)CCn1nnnc1SCC1=C(C(=O)O)N2C(=O)[C@@H](NC(=O)Cc3csc(N)n3)[C@H]2SC1 [Cefotiam hydrochloride],423
4,CC(C)(C)NC[C@H](O)COc1nsnc1N1CCOCC1.O=C(O)/C=C\C(=O)O [Timolol maleate salt],414
5,CCC1=C(C)CN(C(=O)NCCc2ccc(S(=O)(=O)NC(=O)N[C@H]3CC[C@H](C)CC3)cc2)C1=O [Glimepiride],415
6,COCCCOc1ccnc(C[S+]([O-])c2nc3ccccc3[nH]2)c1C (centres unmarked) [Rabeprazole Sodium salt],420
7,CCOC(=O)[C@H](CCc1ccccc1)N[C@@H](C)C(=O)N1[C@H](C(=O)O)C[C@@H]2CCC[C@@H]21 [Ramipril],436
8,CC(=O)Nc1ccc(CC(=O)O)cc1 [Actarit],435
9,CC1(C)[C@@H](OC(=O)CCC(=O)O)CC[C@]2(C)[C@H]3C(=O)C=C4[C@@H]5C[C@@](C)(C(=O)O)CC[C@]5(C)CC[C@@]4(C)[C@]3(C)CC[C@@H]12 [Carbenoxolone disodium salt],460
10,O=C(O)c1ccccc1C(=O)Nc1ccc(S(=O)(=O)Nc2nccs2)cc1 [Phthalylsulfathiazole],425
11,O=C(CCCN1CCN(c2ccccn2)CC1)c1ccc(F)cc1 [Azaperone],419
12,CCCCNc1c(C(=O)OCC)c(C)nc2c1cnn2CC.Cl [Tracazolate hydrochloride],440
13,CC(C)C(=O)c1c(C(C)C)nn2ccccc12 [Ibudilast],444
14,COc1ccnc(C[S+]([O-])c2nc3ccc(OC(F)F)cc3[nH]2)c1OC (centres unmarked) [Pantoprazole sodium],443
15,CN1CCN2c3ncccc3Cc3ccccc3C2C1 (centres unmarked) [Mirtazapine],534
16,CN(C)C(=N)N=C(N)N [Metformin hydrochloride],415
17,CC(=O)OCC(=O)[C@@]12N=C(C)O[C@@H]1C[C@H]1[C@@H]3CCC4=CC(=O)C=C[C@]4(C)[C@H]3[C@@H](O)C[C@@]12C [Deflazacort],420
18,CC1/C=C/C=C/CC/C=C/C=C/C=C/C=C/C(O[C@@H]2O[C@H](C)[C@@H](O)[C@H](N)[C@@H]2O)CC(O)C(C(=O)O)C(O)CC(=O)CC(O)C(O)CCC(O)CC(O)CC(O)CC(=O)OC(C)C(C)C1O (some centres unmarked) [Nystatine],446
